Data reported in PMC3958129, “Enzyme kinetics and distinct modulation of the protein kinase N family of kinases by lipid activators and small molecule inhibitors” (Bioscience Reports, 2014).
Read-outs that look alike come from different tables or passages of the source.

Legend:
CK1δ = details: read-out: IC50 CK1δ; panel of over 70 protein kinases; ref [29]; cited from earlier work
Src = details: read-out: IC50 Src; panel of over 70 protein kinases; ref [29]; cited from earlier work
RIP2 = details: read-out: IC50 RIP2; panel of over 70 protein kinases; ref [29]; cited from earlier work
PKN1 [1] = target: T1, PKN1 (Homo sapiens, UniProt Q16512); experiment: PKN1 kinase inhibition, off-chip mobility shift assay; assay type: biochemical; parameters: Full-length, FLAG-tagged human PKN1, PKN2 and PKN3 were expressed in mammalian HEK-293 cells; host or cells: HEK-293 (transient transfection, pcDNA4/TO)
PKN2 [2] = system: PKN2; parameters: method as in PMID 17850214, PMID 10998351; details: ref [29],[30], cited from earlier work
CSK = details: read-out: IC50 CSK; panel of over 70 protein kinases; ref [29]; cited from earlier work
PKN3 [3] = target: T2, PKN3 (Homo sapiens, UniProt Q6P5Z2); experiment: PKN3 kinase inhibition, off-chip mobility shift assay; assay type: biochemical; parameters: Full-length, FLAG-tagged human PKN1, PKN2 and PKN3 were expressed in mammalian HEK-293 cells
Lck = details: read-out: IC50 Lck; panel of over 70 protein kinases; ref [29]; cited from earlier work
PKN2 [4] = target: T3, PKN2 (Homo sapiens, UniProt Q16513); experiment: Bisubstrate steady-state kinetic analysis of PKN2 in the presence of arachidonic acid
PKN3 [5] = target: T2, PKN3; experiment: Bisubstrate steady-state kinetic analysis of PKN3 in the presence of arachidonic acid
PKN3 [6] = target: T2, PKN3; experiment: Lipid activation of PKN3 kinase activity, off-chip mobility shift assay; assay type: biochemical; parameters: Full-length, FLAG-tagged human PKN1, PKN2 and PKN3 were expressed in mammalian HEK-293 cells
Experimental: (§1) Lipids were supplied as a solid powders, ethanol, or chloroform solutions. All solids were dissolved directly into assay buffer and briefly water bath sonicated at room temperature for 10 min. Lipids supplied as solutions in organic solvent were dried under a gentle stream of nitrogen, resuspended in assay buffer, and similarly sonicated. All lipids were prepared fresh daily.
(§2) The activity of all PKN proteins was monitored through the use of a highly sensitive off-chip mobility shift assay utilizing a LabChip EZ Reader II instrument (Caliper Life Sciences/PerkinElmer); this assay format has been described elsewhere. Kinase activity was monitored through the phosphorylation of a 5-FAM-labelled PKN substrate peptide found through Pfizer in-house optimization efforts and derived from the amino acid sequence of GSK3α (accession no. AAH51865.1) with the following sequence: 5-FAM-C6-[…]-NH2. The likely site of phosphorylation is underlined, as determined through comparison with the published phosphorylation consensus sequence for PKN1 and PKN3 substrates. Reaction buffer contained 25 mM Tris, pH 8.0, 5 mM MgCl2, 0.002% CHAPS and 2 mM DTT, with indicated protein, ATP and peptide concentrations. Peptide concentration was adjusted according to purity and peptide content. For inhibition studies, the inhibitor was pre-incubated with enzyme for 15 min at room temperature. All reactions were initiated with ATP and conducted at room temperature (~22°C). Reactions were terminated by the addition of EDTA, pH 8.0, at a final concentration of 25 mM. All reaction rates were determined to be linear with respect to time and enzyme concentration where no more than 20% of peptide substrate had been converted to product. Aliquots of each reaction were transferred in duplicate to a 384-well plate and analysed on a LabChip EZ Reader II with separation buffer containing 100 mM Hepes, pH 7.5, 0.015% Brij-35, 1 mM EDTA, 0.1% CR3 coating reagent, 1×CR8 coating reagent and 5% DMSO, with the following settings: downstream voltage: −500 V, upstream voltage: −2300 V, base pressure: −0.5 psi; screen pressure: −1.7 psi.
Ki values for representative inhibitors were determined by fitting initial reaction velocities to eqn (2) for competitive inhibition using the method of non-linear least-squares using GraphPad Prism. Turnover number (kcat) was calculated by normalizing Vmax values for enzyme concentration.
(§3) Figure 2 PKN responses to lipid activators in biochemical assays Lipids were prepared as described under the Experimental section, and kinase activity of PKN isoforms was measured using off-chip mobility shift assay described in the Methods section. Each lipid was titrated in the presence of 1 nM, 5 nM and 3 nM PKN1–3, respectively, 3 μM peptide and 500 μM ATP. vi is the initial rate at each concentration of lipid activator and vo is the initial rate in the absence of lipid.

PKN1 [7] = target: T1, PKN1; experiment: Lipid activation of PKN1 kinase activity, off-chip mobility shift assay; assay type: biochemical; parameters: Full-length, FLAG-tagged human PKN1, PKN2 and PKN3 were expressed in mammalian HEK-293 cells; host or cells: HEK-293 (transient transfection, pcDNA4/TO); details: saturating ATP (500 μM), 3 μM peptide, 1 nM PKN1; for PKN1 Maximal fold activation: increase in initial rate
Experimental: as §1
as §2, with “psi. […]” for “psi.”
as §3

PKN1 [8] = target: T1, PKN1; experiment: Bisubstrate steady-state kinetic analysis of PKN1 in the presence of arachidonic acid
PKN2 [9] = target: T3, PKN2; experiment: Lipid activation of PKN2 kinase activity, off-chip mobility shift assay; assay type: biochemical; parameters: Full-length, FLAG-tagged human PKN1, PKN2 and PKN3 were expressed in mammalian HEK-293 cells; host or cells: HEK-293 (transient transfection, pcDNA4/TO)
Experimental: as §1
as §2, with “psi. […]” for “psi.”
as §3

[10] = 100 μM vs 0 μM arachidonic acid

T1 sequence (Q16512 whole entry): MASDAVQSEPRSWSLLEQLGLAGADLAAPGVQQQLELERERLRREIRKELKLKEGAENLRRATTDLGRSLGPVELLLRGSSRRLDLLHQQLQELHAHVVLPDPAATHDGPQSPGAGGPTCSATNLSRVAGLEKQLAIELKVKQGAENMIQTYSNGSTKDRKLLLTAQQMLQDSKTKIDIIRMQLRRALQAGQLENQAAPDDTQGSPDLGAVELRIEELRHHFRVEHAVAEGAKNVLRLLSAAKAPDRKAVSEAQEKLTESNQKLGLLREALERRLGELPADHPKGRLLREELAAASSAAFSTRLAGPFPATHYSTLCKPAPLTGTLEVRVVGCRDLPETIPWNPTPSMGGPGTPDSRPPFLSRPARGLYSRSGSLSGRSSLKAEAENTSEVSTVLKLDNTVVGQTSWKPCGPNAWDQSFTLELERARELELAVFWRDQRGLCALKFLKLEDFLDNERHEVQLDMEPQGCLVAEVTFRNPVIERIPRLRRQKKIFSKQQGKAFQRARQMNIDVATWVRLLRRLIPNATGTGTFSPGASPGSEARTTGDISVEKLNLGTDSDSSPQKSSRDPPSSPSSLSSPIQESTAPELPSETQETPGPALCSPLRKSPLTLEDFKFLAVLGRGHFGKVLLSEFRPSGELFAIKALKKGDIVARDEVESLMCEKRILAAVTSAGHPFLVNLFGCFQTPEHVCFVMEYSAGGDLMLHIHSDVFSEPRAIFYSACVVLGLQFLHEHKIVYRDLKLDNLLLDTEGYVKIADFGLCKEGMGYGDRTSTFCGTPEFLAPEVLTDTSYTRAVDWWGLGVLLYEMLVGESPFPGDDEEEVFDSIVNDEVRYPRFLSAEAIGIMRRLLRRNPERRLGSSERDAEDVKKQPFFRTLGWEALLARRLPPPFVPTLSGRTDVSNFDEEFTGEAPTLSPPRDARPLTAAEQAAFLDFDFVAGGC
T2 sequence (Q6P5Z2 whole entry): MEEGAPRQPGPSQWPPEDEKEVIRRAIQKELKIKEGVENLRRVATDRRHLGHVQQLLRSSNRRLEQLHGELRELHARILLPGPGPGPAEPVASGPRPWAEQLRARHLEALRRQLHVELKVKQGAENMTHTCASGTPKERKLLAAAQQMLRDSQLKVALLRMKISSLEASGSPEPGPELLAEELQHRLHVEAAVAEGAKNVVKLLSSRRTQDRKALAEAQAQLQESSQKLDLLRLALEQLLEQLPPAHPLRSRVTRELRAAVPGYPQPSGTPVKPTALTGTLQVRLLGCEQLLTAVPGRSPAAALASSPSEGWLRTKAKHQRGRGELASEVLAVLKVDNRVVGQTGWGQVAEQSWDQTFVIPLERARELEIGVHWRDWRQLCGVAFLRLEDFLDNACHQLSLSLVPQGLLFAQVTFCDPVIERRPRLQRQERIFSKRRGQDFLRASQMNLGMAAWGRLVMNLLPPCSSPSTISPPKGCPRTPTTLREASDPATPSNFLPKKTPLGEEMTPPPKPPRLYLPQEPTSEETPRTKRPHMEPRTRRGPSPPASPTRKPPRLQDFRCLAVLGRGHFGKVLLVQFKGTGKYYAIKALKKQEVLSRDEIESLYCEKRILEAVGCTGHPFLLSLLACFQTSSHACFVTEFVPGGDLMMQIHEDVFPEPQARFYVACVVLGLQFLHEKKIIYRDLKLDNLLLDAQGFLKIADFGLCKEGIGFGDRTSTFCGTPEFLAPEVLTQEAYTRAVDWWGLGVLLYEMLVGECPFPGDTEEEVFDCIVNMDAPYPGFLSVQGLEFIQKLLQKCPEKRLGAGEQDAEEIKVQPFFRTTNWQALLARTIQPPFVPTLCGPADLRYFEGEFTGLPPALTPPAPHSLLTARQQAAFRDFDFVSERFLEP
T3 sequence (Q16513 whole entry): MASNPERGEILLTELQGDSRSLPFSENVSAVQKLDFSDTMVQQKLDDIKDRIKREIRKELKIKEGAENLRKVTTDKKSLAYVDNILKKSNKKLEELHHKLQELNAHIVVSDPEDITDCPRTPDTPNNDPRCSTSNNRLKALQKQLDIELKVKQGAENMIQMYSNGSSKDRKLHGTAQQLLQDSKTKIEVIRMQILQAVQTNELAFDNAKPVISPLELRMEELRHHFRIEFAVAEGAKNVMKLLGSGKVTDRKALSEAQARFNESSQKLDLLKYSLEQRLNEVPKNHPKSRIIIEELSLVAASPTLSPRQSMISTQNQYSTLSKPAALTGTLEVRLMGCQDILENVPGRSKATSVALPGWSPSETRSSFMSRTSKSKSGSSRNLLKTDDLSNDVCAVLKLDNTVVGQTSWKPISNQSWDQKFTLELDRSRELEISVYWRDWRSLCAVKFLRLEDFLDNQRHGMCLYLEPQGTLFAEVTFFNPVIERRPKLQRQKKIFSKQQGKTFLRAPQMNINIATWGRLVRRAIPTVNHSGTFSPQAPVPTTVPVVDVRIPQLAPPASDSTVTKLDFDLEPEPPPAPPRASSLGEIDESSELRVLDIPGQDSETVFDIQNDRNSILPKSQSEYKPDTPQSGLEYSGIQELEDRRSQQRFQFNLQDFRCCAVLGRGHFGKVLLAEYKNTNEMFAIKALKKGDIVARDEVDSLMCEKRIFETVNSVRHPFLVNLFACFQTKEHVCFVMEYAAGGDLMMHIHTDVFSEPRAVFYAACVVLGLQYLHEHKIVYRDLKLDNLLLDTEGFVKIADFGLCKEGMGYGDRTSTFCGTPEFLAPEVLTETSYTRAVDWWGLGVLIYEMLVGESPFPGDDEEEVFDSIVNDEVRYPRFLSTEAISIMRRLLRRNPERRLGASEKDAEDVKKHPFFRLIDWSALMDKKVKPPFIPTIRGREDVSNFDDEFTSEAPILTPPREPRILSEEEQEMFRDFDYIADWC

## Cc1ccc(-c2nn(C(C)(C)C)c3ncnc(N)c23)cc1 [Compound 8, PP1]
CK1δ
  IC50: 170 nM
Src
  IC50: […]
RIP2
  IC50: 26 nM
PKN1 [1]
  Ki: > 5000 nM
PKN2 [2]; at 1 μM
  PKN2 remaining activity: 84%
CSK
  IC50: 640 nM
PKN3 [3]
  Ki: 1.3 ± 0.1 nM
Lck
  IC50: […]

## C[C@@H](N)[C@H]1CC[C@H](C(=O)Nc2ccncc2)CC1 [Compound 7, Y27632]
PKN1 [1]; absence of lipids, fit to competitive inhibition, ±S.D., n=2, read-out: PKN1, Ki
  Ki: 700 ± 200 nM
PKN2 [2]
  IC50: […]

## CCCCC/C=C\C/C=C\C/C=C\C/C=C\CCCC(=O)O [Arachidonic Acid]
PKN2 [4]; 100 μM arachidonic acid
  Kia of PKN2 (equilibrium dissociation constant of ATP): 2 ± 1 µM
  kcat of PKN2: 0.9 ± 0.1 s⁻¹
PKN2 [4]; [10]
  increase in catalytic efficiency (kcat/KM,Pep) of PKN2: 12 fold
  increase in kcat for PKN2: 9 fold
  increase in kcat/KM,ATP of PKN2: 45 fold
  reduction of ATP KM for PKN2: 6 fold
PKN3 [5]; 5 μM arachidonic acid
  Kia of PKN3 (equilibrium dissociation constant of ATP): 14 ± 3 µM
  kcat of PKN3: 1.1 ± 0.1 s⁻¹
PKN3 [5]; 5 μM vs 0 μM arachidonic acid
  reduction of ATP KM for PKN3: 3 fold
PKN3 [5]; arachidonic acid at 5 μM
  effect on kcat for PKN3: no effect
PKN3 [5]; arachidonic acid at 5 μM vs 0 μM
  decrease in KM,Pep of PKN3: 4 fold
PKN3 [6]; higher concentrations of arachidonic acid (above 5 μM)
  effect on PKN3 kinase activity: significantly inhibited
PKN3 [6]; increase in initial rate, saturating ATP (500 μM), 3 μM peptide, 3 nM PKN3
  PKN3 Maximal fold activation: <2 fold
PKN3 [6]; relatively low (5 μM) concentration of arachidonic acid
  effect on PKN3 kinase activity: slightly stimulated
PKN1 [7]
  PKN1 Maximal fold activation: 16 fold
PKN1 [7]; listed as arachidonic acid
  PKN1 Maximal fold activation: 10–16 fold
PKN1 [7]; lipid activator
  EC50: 11000 ± 1000 nM
PKN1 [8]; 100 μM arachidonic acid
  Kia of PKN1 (equilibrium dissociation constant of ATP): 19 ± 10 µM
  kcat of PKN1: 13 ± 6 s⁻¹
PKN1 [8]; [10]
  effect on ATP KM for PKN1: relatively unaffected
  increase in catalytic efficiency (kcat/KM,Pep) of PKN1: 32 fold
  increase in kcat for PKN1: 18 fold
PKN2 [9]; in words, saturating ATP
  effect on PKN2 kinase activity: increased
PKN2 [9]; increase in initial rate, saturating ATP (500 μM), 3 μM peptide, 5 nM PKN2
  PKN2 Maximal fold activation: 7 fold
PKN2 [9]; lipid activator, saturating ATP (500 μM), 3 μM peptide, 5 nM PKN2
  EC50: 9000 ± 1000 nM
